{"source": "paper PMC10296347", "about": "“Identification of the Stapled α-Helical Peptide ATSP-7041 as a Substrate and Strong Inhibitor of OATP1B1 In Vitro” (Biomolecules, 2023)", "molecular_target": "CYP2C9 (Homo sapiens, UniProt P11712)", "sequence (P11712 whole entry)": "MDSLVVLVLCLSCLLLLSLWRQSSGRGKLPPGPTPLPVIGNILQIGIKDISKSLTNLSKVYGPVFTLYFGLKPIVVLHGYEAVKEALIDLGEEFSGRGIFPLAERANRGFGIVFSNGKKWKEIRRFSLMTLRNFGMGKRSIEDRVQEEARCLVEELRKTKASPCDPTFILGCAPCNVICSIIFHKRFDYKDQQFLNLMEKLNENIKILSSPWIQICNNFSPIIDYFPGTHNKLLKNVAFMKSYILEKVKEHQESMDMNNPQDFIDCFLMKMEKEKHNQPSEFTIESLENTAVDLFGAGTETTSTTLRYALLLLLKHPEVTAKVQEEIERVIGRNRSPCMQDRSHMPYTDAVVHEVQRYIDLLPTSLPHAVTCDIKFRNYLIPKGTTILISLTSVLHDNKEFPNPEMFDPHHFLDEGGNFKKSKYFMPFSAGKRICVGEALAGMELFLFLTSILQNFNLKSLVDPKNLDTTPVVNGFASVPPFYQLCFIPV", "details": "microsomes", "method": "Text S1. Supplementary Materials and Methods.\nMale Human Liver Pooled S9; Tokyo, Japan). Midazolam, midazolam-d4, 1ʹ-hydroxymidazolam, testosterone, testosterone-d3, and 6β-hydroxytestosterone, were purchased […]\n(Fluorometric)) were purchased from BioVision. Inc. (Milpitas, CA, USA). Reversed vesicles […]\nwere commercially available.\n2. Evaluation of ATSP-7041 as a substrate of CYPs\nS9, with or without the NADPH generation system. S9 (A), at a 2 mg/mL protein concentration […]\nThe reaction solution (400 μL) was then\n3. Evaluation of ATSP-7041 as an inhibitor of CYPs […]\nthe manufacturer’s protocol. […]\nthe indicated periods of times. The substrates, positive control inhibitors, and fluorescence […]\nTable S1. Parameters used in LC/MS analysis.\nTable S2. Substrates and positive control inhibitors used for CYPs inhibition screening.\nResidual activity (% of control, i.e. without test chemical for inhibition) of human CYPs with ATSP-7041 (10 μM) in CYPs inhibition screening. The activity of CYPs were calculated as background-corrected reaction rates using the linear phase of reaction progress […]\ncurve. Data are presented as the mean ± S.D. (n = 3). *\nAnalyte Transition Polarity Ion source voltage Source temp. Collision energy LC gradient program […]\n5% B (0-1 min) - 45% B (3 min)\nCYP isoform Substrate Concentration Positive control inhibitor Concentration Detection Kit No. […]", "data": [{"smiles": "Nc1ccc(S(=O)(=O)Nc2ccnn2-c2ccccc2)cc1", "note": "[Sulfaphenazole]", "values": [{"measurement": "Residual activity (% of control) CYP2C9, positive control inhibitor", "value": "8.59 ± 2.06 % of control"}]}]}
